This passage reports EC50 results from patent publication US11033556B2, “Bicyclic sulfonamides” (priority 2019, dated 2021).

One assay deals with HBV. As to the kind of experiment: HBV-DNA Antiviral Assay Using HepG2.2.15 Cells. Format: cell-based. Particulars: Hepatitis B virus; HepG2.2.15 cells, extracellular HBV DNA by qPCR; one class for the group of four: *at least 2 of the diastereomers have the indicated activity; read-out: EC50. The protocol:
The following assay procedure describes the HBV antiviral assay. This assay uses HepG2.2.15 cells, which have been transfected with HBV genome, and extracellular HBV DNA quantification as endpoint. Cell viability is assessed in parallel by measuring the intracellular ATP content using the CellTiter-Glo® reagent from Promega.
On day 0, HepG2.2.15 cells were seeded in 96-well plates at a density of 6.0×10^4 cells/well(0.1 ml/well). The cells were incubated at 37° C. and 5% CO2.
On day 1, the test articles were diluted and added to cell culture wells (8 concentrations, 4-fold dilution, in duplicate). GLS4, Tenofovir and Sorafenib were used as reference compounds. 100 μl of culture medium containing the compounds was added to the plate, and the final total volume per well was 200 μl. The final concentration of DMSO in the culture medium was 0.5%. The plate map of compound treatment is shown below. The cells were cultured at 37° C. and 5% CO2 for 3 days.
On day 4, the plates were refreshed with culture media with compounds.
On day 7, cell viability was assessed using the CellTiter-Glo®, and the cell culture supernatants were collected for determination of HBV DNA by qPCR.
Extracellular DNA was isolated with QIAamp 96 DNA Blood Kit per the manufacturer's manual. HBV DNA was then quantified by qPCR with HBV specific primers and probes as specified in Table 2 using the FastStart Universal MasterMix from Roche on an ABI-7900HT. The PCR cycle program consisted of 95° C. for 10 min, followed by 40 cycles at 95° C. for 15 sec and 60° C. for 1 min.
A DNA standard was prepared by dilution of the pAAV2 HBV1.3 plasmid with concentrations ranging from 10 to 1×10^7 […] and used to generate a standard curve by plotting Ct value vs. the concentration of the HBV plasmid DNA standard. The quantity of HBV DNA in each sample was determined by interpolating from the standard curve.
Cell viability was calculated as follows: % Cell viability=(luminescence value of test sample−average luminescence value of blank)/(average luminescence value of 0.5% DMSO control−average luminescence of blank)×100%. HBV DNA inhibition was calculated as follows: 100−(HBV DNA copy number of test sample−HBV DNA copy number of ETV)/HBV DNA copy number of 0.5% DMSO control−HBV DNA copy number of ETV)×100%. The CC50, EC50 and EC90 values were determined by dose-response curves fitted by GraphPad Prism using “log (agonist) vs. response—Variable slope”.
Background: Real-time PCR tracks product formation cycle by cycle.

Another assay deals with genotype D HBV. As to the kind of experiment: HBV-DNA Antiviral Assay Using HepG2.117 Cells. Format: cell-based. Particulars: Hepatitis B virus, HepG2.117, 96 h, intracellular HBV DNA by qPCR, day 4. Here is the method:
The following assay procedure describes the HBV antiviral assay, using HepG2.117 cells, which carry a stably integrated genotype D HBV genome under the control of a Tet-off promoter, and intracellular HBV DNA quantification as endpoint. Cell viability is assessed in parallel by measuring the intracellular ATP content using ATPlite (Perkin Elmer).
On day 0, HepG2.117 cells (which are maintained in routine cell culture with doxycycline present in the medium at a final concentration of 1 μg/mL) were seeded in 96-well plates (white with clear bottom) at a density of 2.0×10^4 cells/well (0.1 mL/well) in medium without doxycycline to induce pgRNA transcription and subsequent formation of HBV particles. The cells were incubated at 37° C. and 5% CO2.
On day 1, medium was removed from each well, the test articles were diluted in culture medium without doxcycyline and 100 μL was added to cell culture wells (9 concentrations, 4-fold dilution). For each plate, 6 untreated (merely DMSO) wells were included. The final concentration of DMSO in the culture medium was 2%. Each plate was prepared in duplicate (one for HBV DNA extraction, one for ATPlite measurement). The cells were incubated at 37° C. and 5% CO2 for 3 days.
On day 4, cell viability was assessed using ATPlite and cell lysates were prepared for HBV DNA extraction and subsequent quantification by qPCR.
Medium was removed from each well and 100 μL of 0.33% NP-40 in H2O was added to each well. Plates were sealed, incubated at 4° C. for 5 mins, vortexed extensively and centrifuged briefly. Next, 35 μL of lysate was added to 65 μL QuickExtract DNA Extraction Solution (Epicentre) in a PCR plate for each well. PCR plate was incubated at 65° C. for 6 mins, 98° C. for 2 mins and finally cooled to 4° C. HBV DNA was then quantified by qPCR with HBV-specific primers and probes as specified in Table 4 using the Bio-Rad SSOAdvanced Universal Probes Supermix on a CFX96 machine (Bio-Rad). The PCR cycle program consisted of 95° C. for 3 mins, followed by 40 cycles at 95° C. for 10 sec and 60° C. for 30 sec.
A DNA standard was prepared by dilution of an IDT gBlock corresponding to the amplicon with concentrations ranging from 10^2 to 10^8 copies/input (i.e. per 4 μL) and used to generate a standard curve by plotting Cq values vs. HBV DNA standard concentration. The quantity of HBV DNA in each sample was determined by interpolating from the standard curve.
Cell viability was calculated as follows: % Cell viability=(luminescence value of test sample)/(average luminescence value of 2% DMSO control)×100%. HBV DNA inhibition was calculated as follows: 100−(HBV DNA copy number of test sample)/(average HBV DNA copy number of 2% DMSO control)×100%. No normalization to entecavir was required due to the excellent dynamic window of this assay. The CC50, EC50 and EC90 values were determined by dose-response curves fitted by GraphPad Prism using “log (agonist) vs. response—Variable slope”.

The term EC50 denotes the concentration at which the effect is half-maximal.

SMILES strings stand for the structures.

`C#C[C@@H](O)[C@H]1CCc2c(cn(C)c2C(=O)Nc2ccc(F)c(C#N)c2)S(=O)(=O)N1` [Compound 2A, (3R)—N-(3-cyano-4-fluorophenyl)-3-[(1R)-1-hydroxyprop-2-yn-1-yl]-7-methyl-1,1-dioxo-2H,3H,4H,5H-1λ6-pyrrolo[3,4-f][1,2]thiazepine-6-carboxamide]: in the assay on HBV, the 50% effective concentration (EC50) was below 1000 nM. On to `C#C[C@H](O)[C@H]1CCc2c(cn(C)c2C(=O)Nc2ccc(F)c(C#N)c2)S(=O)(=O)N1` [Compound 2B, (3R)—N-(3-cyano-4-fluorophenyl)-3-[(1S)-1-hydroxyprop-2-yn-1-yl]-7-methyl-1,1-dioxo-2H,3H,4H,5H-1λ6-pyrrolo[3,4-f][1,2]thiazepine-6-carboxamide], for which the EC50 in the assay on HBV was below 1000 nM.

Regarding `C#C[C@H](O)[C@@H]1CCc2c(cn(C)c2C(=O)Nc2ccc(F)c(C#N)c2)S(=O)(=O)N1` [Compound 2C, (3S)—N-(3-cyano-4-fluorophenyl)-3-[(1S)-1-hydroxyprop-2-yn-1-yl]-7-methyl-1,1-dioxo-2H,3H,4H,5H-1λ6-pyrrolo[3,4-f][1,2]thiazepine-6-carboxamide], the EC50 with HBV was below 1000 nM. Same read-out and setting: to `C#C[C@@H](O)[C@@H]1CCc2c(cn(C)c2C(=O)Nc2ccc(F)c(C#N)c2)S(=O)(=O)N1` [Compound 2D, (3S)—N-(3-cyano-4-fluorophenyl)-3-[(1R)-1-hydroxyprop-2-yn-1-yl]-7-methyl-1,1-dioxo-2H,3H,4H,5H-1λ6-pyrrolo[3,4-f][1,2]thiazepine-6-carboxamide] belongs below 1000 nM.

With `C#C[C@@](C)(O)[C@H]1COc2c(cn(C)c2C(=O)Nc2ccc(F)c(C#N)c2)S(=O)(=O)N1` [Compound 35B], in the assay with genotype D HBV, the EC50 lay in the range of 1 to 10 nM. `C#C[C@](C)(O)[C@H]1COc2c(cn(C)c2C(=O)Nc2ccc(F)c(C(F)(F)F)c2)S(=O)(=O)N1` [Compound 36A] yielded an EC50 with genotype D HBV of 10 to 100 nM. As for `C#C[C@@](C)(O)[C@H]1COc2c(cn(C)c2C(=O)Nc2ccc(F)c(C(F)(F)F)c2)S(=O)(=O)N1` [Compound 36B], the EC50 with genotype D HBV is 1 to 10 nM. In the assay on genotype D HBV, `C#CC(O)([C@H]1COc2c(cn(C)c2C(=O)Nc2ccc(F)c(C#N)c2)S(=O)(=O)N1)C(F)(F)F` (some centres unmarked) [Compound 37] gave an EC50 of 10 to 100 nM.

On to `C=C[C@@]1([C@H](C)O)COc2c(cn(C)c2C(=O)Nc2ccc(F)c(C#N)c2)S(=O)(=O)N1` [Compound 38A], for which, in the assay on genotype D HBV, the concentration giving a half-maximal response (EC50) was 10 to 100 nM. With `C=C[C@]1([C@@H](C)O)COc2c(cn(C)c2C(=O)Nc2ccc(F)c(C#N)c2)S(=O)(=O)N1` [Compound 38B], the EC50 in the assay on genotype D HBV lay within 10 to 100 nM. In the assay on genotype D HBV, `C=C[C@]1([C@H](C)O)COc2c(cn(C)c2C(=O)Nc2ccc(F)c(C#N)c2)S(=O)(=O)N1` [Compound 38C] returned an EC50 of 1 to 10 nM. Regarding `C=C[C@@]1([C@@H](C)O)COc2c(cn(C)c2C(=O)Nc2ccc(F)c(C#N)c2)S(=O)(=O)N1` [Compound 38D], the EC50 in the assay with genotype D HBV fell in the range of 100 to 1000 nM. On to `C=CC1([C@H]2COc3c(cn(C)c3C(=O)Nc3ccc(F)c(C#N)c3)S(=O)(=O)N2)CCOCC1` [Compound 39A], for which the EC50 with genotype D HBV lay in the range of 10 to 100 nM. `C=CC1([C@@H]2COc3c(cn(C)c3C(=O)Nc3ccc(F)c(C#N)c3)S(=O)(=O)N2)CCOCC1` [Compound 39B] registered a concentration giving a half-maximal response (EC50) with genotype D HBV of 10 to 100 nM.

As to `C=CC[C@](C)(O)[C@H]1COc2c(cn(C)c2C(=O)Nc2ccc(F)c(C#N)c2)S(=O)(=O)N1` [Compound 40A], the EC50 in the assay with genotype D HBV was in the range of 1 to 10 nM. `C=CC[C@@](C)(O)[C@H]1COc2c(cn(C)c2C(=O)Nc2ccc(F)c(C#N)c2)S(=O)(=O)N1` [Compound 40B] came in with an EC50 in the assay on genotype D HBV of 1 to 10 nM. On to `C=C[C@H](O)[C@]1(C)COc2c(cn(C)c2C(=O)Nc2ccc(F)c(C#N)c2)S(=O)(=O)N1` [Compound 41A], for which the half-maximal effective concentration (EC50) in the assay on genotype D HBV was 1 to 10 nM. For `C=C[C@@H](O)[C@@]1(C)COc2c(cn(C)c2C(=O)Nc2ccc(F)c(C#N)c2)S(=O)(=O)N1` [Compound 41B], the EC50 in the assay on genotype D HBV is 1 to 10 nM. Compound `C=C[C@H](O)[C@@]1(C)COc2c(cn(C)c2C(=O)Nc2ccc(F)c(C#N)c2)S(=O)(=O)N1` [Compound 41C] showed an EC50 in the assay on genotype D HBV of 10 to 100 nM. On the same count and under the same terms, to `C=C[C@@H](O)[C@]1(C)COc2c(cn(C)c2C(=O)Nc2ccc(F)c(C#N)c2)S(=O)(=O)N1` [Compound 41D] belongs 10 to 100 nM; to `C#C[C@H](O)[C@]1(C)COc2c(cn(C)c2C(=O)Nc2ccc(F)c(C#N)c2)S(=O)(=O)N1` [Compound 42A], 1 to 10 nM; to `C#C[C@@H](O)[C@@]1(C)COc2c(cn(C)c2C(=O)Nc2ccc(F)c(C#N)c2)S(=O)(=O)N1` [Compound 42B], 1 to 10 nM. Turning to `C#C[C@H](O)[C@@]1(C)COc2c(cn(C)c2C(=O)Nc2ccc(F)c(C#N)c2)S(=O)(=O)N1` [Compound 42C], the concentration for a half-maximal effect (EC50) in the assay with genotype D HBV lay in the range of 1 to 10 nM. Compound `C#C[C@@H](O)[C@]1(C)COc2c(cn(C)c2C(=O)Nc2ccc(F)c(C#N)c2)S(=O)(=O)N1` [Compound 42D] returned an EC50 with genotype D HBV of 10 to 100 nM. The same measure, in the same setting: with `C=CC1([C@H]2COc3c(cn(C)c3C(=O)Nc3ccc(F)c(C#N)c3)S(=O)(=O)N2)CCS(=O)(=O)CC1` [Compound 43A] the figure was 10 to 100 nM. `C=CC1([C@@H]2COc3c(cn(C)c3C(=O)Nc3ccc(F)c(C#N)c3)S(=O)(=O)N2)CCS(=O)(=O)CC1` [Compound 43B] had an EC50 in the assay on genotype D HBV of 10 to 100 nM.

Turning to `C=CC[C@H](O)[C@]1(C)COc2c(cn(C)c2C(=O)Nc2ccc(F)c(C#N)c2)S(=O)(=O)N1` [Compound 44A], the EC50 in the assay on genotype D HBV lay in the range of 10 to 100 nM. As to `C=CC[C@@H](O)[C@@]1(C)COc2c(cn(C)c2C(=O)Nc2ccc(F)c(C#N)c2)S(=O)(=O)N1` [Compound 44B], the EC50 in the assay on genotype D HBV was in the range of 1 to 10 nM. For the compound `C=CC(C)(C)[C@H]1COc2c(cn(C)c2C(=O)Nc2ccc(F)c(C#N)c2)S(=O)(=O)N1` [Compound 45A], the EC50 in the assay on genotype D HBV is 1 to 10 nM. `C=CC(C)(C)[C@@H]1COc2c(cn(C)c2C(=O)Nc2ccc(F)c(C#N)c2)S(=O)(=O)N1` [Compound 45B] had a 50% effective concentration (EC50) with genotype D HBV of 1 to 10 nM. Same read-out and setting: to `CC#CC[C@H]1COc2c(cn(C)c2C(=O)Nc2ccc(F)c(C#N)c2)S(=O)(=O)N1` [Compound 46] belongs 1 to 10 nM; to `C=CC[C@H]1COc2c(cn(C)c2C(=O)Nc2ccc(F)c(C#N)c2)S(=O)(=O)N1` [Compound 47], 1 to 10 nM.
